Laboratory results as given in ChEMBL document CHEMBL1151209, “New quassinoids, javanicolides C and D and javanicosides B--F, from seeds of Brucea javanica” (J Nat Prod, 2004).
Values after ≈ are worked out from the molar mass of the structure shown.

tested on: P388; assay: Cytotoxicity against mouse P388 cells after 48 hrs by MTT assay; type: functional, cell-based; settings: P388, 48 h

For COC(=O)[C@@]12OC[C@]34[C@H]([C@@H](O)[C@@H]1O)[C@@]1(C)C[C@@H](O)[C@@H](O)[C@@H](C)[C@@H]1C[C@H]3OC(=O)[C@H](OC(=O)C=C(C)C)[C@@H]24 [JAVANICOLIDE C], which IC50 is on record?
Its IC50 is > 100 µg/mL.

For COC(=O)[C@@]12OC[C@]34[C@H]([C@@H](O)[C@@H]1O)[C@@]1(C)[C@H](O)[C@@H](O)C=C(C)[C@@H]1C[C@H]3OC(=O)[C@H](OC(=O)/C=C(\C)C(C)(C)O)[C@@H]24 [JAVANICOLIDE D], which IC50 is on record?
Its IC50 is 18 µg/mL (≈ 31.8 µM).

For COC(=O)[C@@]12OC[C@]34[C@H]([C@@H](O)[C@@H]1O)[C@@]1(C)C(=O)C(O[C@@H]5O[C@H](CO)[C@@H](O)[C@H](O)[C@H]5O)=C[C@@H](C)[C@@H]1C[C@H]3OC(=O)[C@H](OC(=O)CC(C)C)[C@@H]24 [JAVANICOSIDE B], which IC50 is on record?
The IC50 was 5.6 µg/mL (≈ 8.18 µM).

With COC(=O)[C@@]12OC[C@@]34[C@@H](CC5=C(C)C(=O)C(O[C@@H]6O[C@H](CO)[C@@H](O)[C@H](O)[C@H]6O)=C[C@]5(C)[C@H]3[C@@H](O)[C@@H]1O)OC(=O)[C@H](OC(=O)C=C(C)C)[C@@H]24 [JAVANICOSIDE C] as the molecule, how does the IC50 read?
Its IC50 is 18 µg/mL (≈ 26.4 µM).

How did the IC50 turn out when CC/C(=C\C(=O)O[C@H]1C(=O)O[C@@H]2C[C@H]3[C@H](C)C(=O)C(O[C@@H]4O[C@H](CO)[C@@H](O)[C@H](O)[C@H]4O)=C[C@]3(C)[C@H]3[C@@H](O)[C@H](O)[C@@]4(C(=O)OC)OC[C@]32[C@@H]14)C(C)(C)O [JAVANICOSIDE D] was run?
The IC50 was 89 µg/mL (≈ 120 µM).

How did the IC50 turn out when COC(=O)[C@@]12OC[C@]34[C@H]([C@@H](O)[C@@H]1O)[C@@]1(C)C=C(O[C@@H]5O[C@H](CO)[C@@H](O)[C@H](O)[C@H]5O)C(=O)[C@@H](C)[C@@H]1C[C@H]3OC(=O)[C@H](OC(=O)CC(C)C(C)(C)OC(C)=O)[C@@H]24 (some centres not stated) [JAVANICOSIDE E] was run?
The IC50 was 16 µg/mL (≈ 20.8 µM).

With CC/C(C)=C/C(=O)O[C@H]1C(=O)O[C@@H]2C[C@H]3[C@H](C)C(=O)C(O[C@@H]4O[C@H](CO)[C@@H](O)[C@H](O)[C@H]4O)=C[C@]3(C)[C@H]3[C@@H](O)[C@H](O)[C@@]4(C(=O)OC)OC[C@]32[C@@H]14 [JAVANICOSIDE F] as the molecule, how does the IC50 read?
The IC50 was 50 µg/mL (≈ 71.8 µM).
